Experimental data published in patent US4352803A, “Novel naphthyridine derivatives, intermediates thereof, processes for preparation thereof, and use thereof” (Dainippon Pharmaceutical Co., Ltd., priority 1978, dated 1982).
Converted amounts (≈) assume the structure as drawn. Counter-ions that a name gives are not always drawn. Like-named read-outs stand apart in the source and are kept apart here.

Assays:
[1] = system: Staphylococcus aureus 209P JC-1; test: In vitro antibacterial activity (MIC), Staphylococcus aureus 209P JC-1; assay type: cell-based; details: read-out: minimum inhibitory concentration (MIC)
Source text: (§1) (MIC) (μg/ml) Method; Chemotherapy, 22(6), 1126 (1974)

[2] = system: Staphylococcus aureus No. 50774; test: In vitro antibacterial activity (MIC), Staphylococcus aureus No. 50774; assay type: cell-based
Source text: as §1

[3] = system: Streptococcus faecalis P-2473; test: In vitro antibacterial activity (MIC), Streptococcus faecalis P-2473; assay type: cell-based; details: Enterococcus faecalis
Source text: as §1

[4] = system: Streptococcus pyogenes 65A; test: In vitro antibacterial activity (MIC), Streptococcus pyogenes 65A; assay type: cell-based; details: read-out: minimum inhibitory concentration (MIC)
Source text: as §1

[5] = system: Corynebacterium pyogenes C-21; test: In vitro antibacterial activity (MIC), Corynebacterium pyogenes C-21; assay type: cell-based; details: Rhodococcus (subgen. Prescottella) equi
Source text: as §1

[6] = system: Escherichia coli NIHJ JC-2; test: In vitro antibacterial activity (MIC), Escherichia coli NIHJ JC-2; assay type: cell-based
Source text: as §1

Escherichia coli P-5101 [7] = test: In vitro antibacterial activity (MIC), Escherichia coli P-5101; assay type: cell-based; details: Escherichia coli, P5101, read-out: minimum inhibitory concentration (MIC)
Source text: as §1

Escherichia coli P-140a = test: In vitro antibacterial activity (MIC), Escherichia coli P-140a; assay type: cell-based; details: read-out: minimum inhibitory concentration (MIC)
Source text: as §1

[8] = system: Salmonella typhimurium 8-9; test: In vitro antibacterial activity (MIC), Salmonella typhimurium 8-9; assay type: cell-based; details: Salmonella enterica, read-out: minimum inhibitory concentration (MIC)
Source text: as §1

[9] = system: Salmonella enteritidis No. 1891; test: In vitro antibacterial activity (MIC), Salmonella enteritidis No. 1891; assay type: cell-based; details: Salmonella enterica, read-out: minimum inhibitory concentration (MIC)
Source text: as §1

Shigella flexneri 2a = test: In vitro antibacterial activity (MIC), Shigella flexneri 2a; assay type: cell-based; details: read-out: minimum inhibitory concentration (MIC)
Source text: as §1

[10] = system: Shigella flexneri 4a P-330; test: In vitro antibacterial activity (MIC), Shigella flexneri 4a P-330; assay type: cell-based; details: 4AP330, read-out: minimum inhibitory concentration (MIC)
Source text: as §1

[11] = system: Klebsiella pneumoniae No. 13; test: In vitro antibacterial activity (MIC), Klebsiella pneumoniae No. 13; assay type: cell-based
Source text: as §1

[12] = system: Enterobacter cloacae P-2540; test: In vitro antibacterial activity (MIC), Enterobacter cloacae P-2540; assay type: cell-based
Source text: as §1

[13] = system: Pseudomonas aeruginosa Tsuchijima; test: In vitro antibacterial activity (MIC), Pseudomonas aeruginosa Tsuchijima; assay type: cell-based; details: read-out: minimum inhibitory concentration (MIC)
Source text: as §1

[14] = system: Pseudomonas aeruginosa No. 12; test: In vitro antibacterial activity (MIC), Pseudomonas aeruginosa No. 12; assay type: cell-based
Source text: as §1

[15] = system: Serratia marcescens IFC 3736; test: In vitro antibacterial activity (MIC), Serratia marcescens IFC 3736; assay type: cell-based
Source text: as §1

Proteus morganii Kono = test: In vitro antibacterial activity (MIC), Proteus morganii Kono; assay type: cell-based; details: Morganella morganii, read-out: minimum inhibitory concentration (MIC)
Source text: as §1

Proteus mirabilis P-2381 = test: In vitro antibacterial activity (MIC), Proteus mirabilis P-2381; assay type: cell-based
Source text: as §1

in vivo = details: mouse, in vivo, po
Procedure: The number of dead mice was counted after 7 days, and the value of median lethal dose (LD50, mg/kg) was calculated in accordance with the Behrens-Kaerber method.

Escherichia coli P-5101 [16] = test: in vivo efficacy against systemic infection in mice, Escherichia coli P-5101; details: P5101, in Mus musculus, po, 168 h
Procedure: Male mice (ddY) weighing about 20 g
Intraperitoneal infection with (about
9 × 10^6 cells/mouse) of a bacterial
(§2) suspension in trypto-soy broth with 4% mucin.
(§3) Twice, about 5 minutes and 6 hours after infection.

[17] = system: Pseudomonas aeruginosa No. 12; test: in vivo efficacy against systemic infection in mice, Pseudomonas aeruginosa No. 12; details: NO.12, in Mus musculus, po, 168 h
Procedure: Male mice (ddY) weighing about 20 g
(3) Pseudomonas aeruginosa No. 12;
(about 5 × 10^3 cells/mouse) of a bacterial
as §2, §3
The numerals in the table show ED50 (mg/kg). ED50 values were

[18] = system: Staphylococcus aureus No. 50774; test: in vivo efficacy against systemic infection in mice, Staphylococcus aureus No. 50774; details: NO.50774, in Mus musculus, po, 336 h
Procedure: Male mice (ddY) weighing about 20 g
Intravenous infection with (about
5 × 10^8 cells/mouse) of a bacterial
as §3

[19] = system: Gram-positive and Gram-negative bacteria; test: in vivo therapeutic efficacy against systemic infections in mice (overall); set-up: species or system mice (ddY)
[20] = Staphylococcus aureus 209P JC-1
[21] = Staphylococcus aureus No. 50774, read-out: minimum inhibitory concentration (MIC)
[22] = P2473, Streptococcus faecalis P-2473, read-out: minimum inhibitory concentration (MIC)
[23] = C21, Corynebacterium pyogenes C-21, read-out: minimum inhibitory concentration (MIC)
[24] = Salmonella enteritidis No. 1891
[25] = Klebsiella pneumoniae, NO.13, read-out: minimum inhibitory concentration (MIC)
[26] = P2540, Enterobacter cloacae P-2540, read-out: minimum inhibitory concentration (MIC)
[27] = Pseudomonas aeruginosa Tsuchijima
[28] = Pseudomonas aeruginosa No. 12, read-out: minimum inhibitory concentration (MIC)
[29] = Serratia marcescens, IFC3736, read-out: minimum inhibitory concentration (MIC)
[30] = P2381, Proteus mirabilis P-2381, read-out: minimum inhibitory concentration (MIC)
[31] = Staphylococcus aureus, NO.50774, read-out: minimum inhibitory concentration (MIC)
[32] = P2473, read-out: minimum inhibitory concentration (MIC)
[33] = C21, read-out: minimum inhibitory concentration (MIC)
[34] = Escherichia coli, NIHJJC2, read-out: minimum inhibitory concentration (MIC)
[35] = Enterobacter cloacae, P2540, read-out: minimum inhibitory concentration (MIC)
[36] = Pseudomonas aeruginosa, NO.12, read-out: minimum inhibitory concentration (MIC)
[37] = Klebsiella pneumoniae No. 13, read-out: minimum inhibitory concentration (MIC)
[38] = Proteus mirabilis, P2381, read-out: minimum inhibitory concentration (MIC)

SMILES	MIC [1, 20] [µg/mL]	MIC [5, 23] [µg/mL]	MIC (Escherichia coli P-5101 [7]) [µg/mL]	MIC (Escherichia coli P-140a; Escherichia coli) [µg/mL]	MIC (Shigella flexneri 2a) [µg/mL]	MIC [10] [µg/mL]	MIC [11, 25] [µg/mL]	MIC [14, 28] [µg/mL]	MIC [15, 29] [µg/mL]	MIC (Proteus morganii Kono) [µg/mL]	ED50 (Escherichia coli P-5101 [16]) [mg/kg]	ED50 [17] [mg/kg]	ED50 [18] [mg/kg]	MIC [2, 31] [µg/mL]	MIC [3, 32] [µg/mL]	MIC ([4]; Streptococcus pyogenes, 65A) [µg/mL]	MIC [6, 34] [µg/mL]	MIC ([8]; TYPHIMURIUM) [µg/mL]	MIC ([9]; ENTERITIDIS) [µg/mL]	MIC [12, 35] [µg/mL]	also measured
CCn1cc(C(=O)O)c(=O)c2cc(Cl)c(N3CCNCC3)nc21.Cl [Compound 3, 6-Chloro-1-ethyl-1,4-dihydro-4-oxo-7-(1-piperazinyl)-1,8-naphthyridine-3-carboxylic acid hydrochloride]	3.13	6.25	0.39	0.39	0.78	1.56	1.56	6.25	1.56	1.56	6.5	58.6	~90	–	–	–	–	–	–	–	MIC [2, 21]: 6.25 µg/mL; MIC [3, 22]: 25 µg/mL; MIC ([4]; Streptococcus pyogenes 65A): 12.5 µg/mL; MIC ([6]; NIHJJC2, Escherichia coli NIHJ JC-2, read-out: minimum inhibitory concentration (MIC)): 0.78 µg/mL; MIC ([8]; Salmonella typhimurium 8-9): 0.39 µg/mL; MIC [9, 24]: 0.39 µg/mL; MIC [12, 26]: 0.78 µg/mL; MIC [13, 27]: 6.25 µg/mL; MIC (Proteus mirabilis P-2381; [30]): 3.13 µg/mL; LD50 at 168 h (in vivo): > 2000 mg/kg
CCn1cc(C(=O)O)c(=O)c2ccc(C)nc21 [E, 1-Ethyl-1,4-dihydro-7-methyl-4-oxo-1,8-naphthyridine-3-carboxylic acid]	–	–	3.13 (≈ 13.5 µM)	–	6.25 (≈ 26.9 µM)	–	12.5 (≈ 53.8 µM)	–	6.25 (≈ 26.9 µM)	6.25 (≈ 26.9 µM)	29.2	> 200	> 800	50 (≈ 215 µM)	> 200	> 200	12.5 (≈ 53.8 µM)	3.13 (≈ 13.5 µM)	3.13 (≈ 13.5 µM)	6.25 (≈ 26.9 µM)	MIC ([1]; Staphylococcus aureus, 209P): 100 µg/mL (≈ 431 µM); MIC [5, 33]: > 200 µg/mL; MIC ([13]; Pseudomonas aeruginosa): 200 µg/mL (≈ 861 µM); MIC [14, 36]: 200 µg/mL (≈ 861 µM); therapeutic effects in vivo against Gram-negative bacteria, relative to compounds 1, 1' and 2 ([19]; Gram-negative, particularly Pseudomonas aeruginosa): clearly inferior
CCn1cc(C(=O)O)c(=O)c2cnc(N3CCNCC3)nc21 [F, 8-Ethyl-5,8-dihydro-5-oxo-2-(1-piperazinyl)pyrido[2,3-d] pyrimidine-6-carboxylic acid]	12.5 (≈ 41.2 µM)	25 (≈ 82.4 µM)	1.56 (≈ 5.14 µM)	1.56 (≈ 5.14 µM)	3.13 (≈ 10.3 µM)	1.56 (≈ 5.14 µM)	–	25 (≈ 82.4 µM)	3.13 (≈ 10.3 µM)	3.13 (≈ 10.3 µM)	21.2	99.5	215	25 (≈ 82.4 µM)	200 (≈ 659 µM)	200 (≈ 659 µM)	1.56 (≈ 5.14 µM)	1.56 (≈ 5.14 µM)	1.56 (≈ 5.14 µM)	1.56 (≈ 5.14 µM)	MIC [11, 37]: 6.25 µg/mL (≈ 20.6 µM); MIC [13, 27]: 12.5 µg/mL (≈ 41.2 µM); MIC (Proteus mirabilis P-2381; [38]): 3.13 µg/mL (≈ 10.3 µM)
CC1(C)S[C@@H]2[C@H](NC(=O)C(C(=O)Oc3ccc4c(c3)CCC4)c3ccccc3)C(=O)N2[C@H]1C(=O)O (stereo partly drawn) [G, α-(5-Indanyloxycarbonyl)benzylpenicillin sodium salt]	0.39	3.13	6.25	–	12.5	6.25	–	50	–	–	100	202	10 to 40	–	–	–	6.25	–	–	–	MIC [2, 21]: 0.78 µg/mL; MIC [3, 22]: 50 µg/mL; MIC ([4]; Streptococcus pyogenes 65A): 0.2 µg/mL; MIC (Escherichia coli P-140a; P140A, Escherichia coli P-140a): 50 µg/mL; MIC ([8]; Salmonella typhimurium 8-9): 0.78 µg/mL; MIC [9, 24]: 0.78 µg/mL; MIC [11, 37]: > 200 µg/mL; MIC [12, 26]: 3.13 µg/mL; MIC ([13]; Pseudomonas aeruginosa): 6.25 µg/mL; MIC ([15]; IFC3736, Serratia marcescens IFC 3736, read-out: minimum inhibitory concentration (MIC)): 3.13 µg/mL; MIC (Proteus morganii Kono; Proteus morganii Kono): 0.78 µg/mL; MIC (Proteus mirabilis P-2381; [30]): 0.78 µg/mL
CC1=C(C(=O)O)N2C(=O)[C@@H](NC(=O)[C@H](N)c3ccccc3)[C@H]2SC1 [J, 7-(D-α-Aminophenylacetamido)desacetoxycephalosporanic acid]	–	–	12.5 (≈ 36 µM)	> 200	12.5 (≈ 36 µM)	200 (≈ 576 µM)	6.25 (≈ 18 µM)	–	> 200	> 200	22.6	> 400	12.1	1.56 (≈ 4.49 µM)	200 (≈ 576 µM)	0.78 (≈ 2.25 µM)	12.5 (≈ 36 µM)	6.25 (≈ 18 µM)	3.13 (≈ 9.01 µM)	> 200	MIC ([1]; Staphylococcus aureus, 209P): 1.56 µg/mL (≈ 4.49 µM); MIC [5, 33]: 1.56 µg/mL (≈ 4.49 µM); MIC ([13]; Pseudomonas aeruginosa): > 200 µg/mL; MIC [14, 36]: > 200 µg/mL; MIC (Proteus mirabilis P-2381; [38]): 12.5 µg/mL (≈ 36 µM)
CCOC(=O)c1cn(CC)c2nc(N3CCNCC3)c(F)cc2c1=O [ethyl ester of compound 1, Ethyl 1-ethyl-6-fluoro-1,4-dihydro-4-oxo-7-(1-piperazinyl)-1,8-naphthyridine-3-carboxylate]	–	–	–	–	–	–	–	–	–	–	–	21	~20	–	–	–	–	–	–	–	therapeutic effect / in vivo antibacterial activity (in words) ([19]; systemic infections with Gram-positive and Gram-negative bacteria): superior antibacterial activity in vivo
